# Measurements taken from patent US10370368B2, “Aryl acylsulfonamides as BLT1 antagonists” (Merck Sharp & Dohme Corp., priority 2015, dated 2019).
# Target: human BLT1 receptor (Homo sapiens (Human), UniProt Q15722)
# Test: BLT-1 cAMP Assay
# Type: cell-based
# Details: antagonist mode; HEK293 cells recombinantly expressing human BLT1 receptor; forskolin 4 μM and LTB4 2 nM
# Experimental: The ability of compounds to antagonize the human BLT1 receptor was determined using a kit to measure changes in intracellular cyclic AMP levels (cAMP dynamic assay kit, Cisbio Cat. No. 62AM4PEC). HEK293 cells recombinantly expressing human BLT1 receptor, previously frozen in Recovery Medium (Life Technologies, Cat. No. 12648-010) were thawed and diluted into assay medium (HBSS (Hyclone SH 30268.01), 20 mM HEPES (Gibco 15630-106), 800 μM IBMX (Sigma 15879), 0.1% DTPA BSA (Perkin Elmer CR84-100)). The cell suspension was centrifuged at 200×g for 10 min and then resuspended in fresh assay medium to a density of 2.5×10^5 cells/mL. A Labcyte Echo 550 acoustic dispenser was used to transfer 25 nL of test compound dissolved in DMSO into the wells of a dry 384-well plate (Greiner 784075). All subsequent liquid additions were performed using a BIORAPTR (FRD; Beckman Coulter). Next, 5 μL of cell suspension was added and incubated for 20 min. at 37° C. and 5% CO2 in a humidified plastic tray. To test for agonist activity 5 μL of assay buffer containing forskolin (Sigma F-6886. 4 μM for BLT1) was added and incubated for 30 minutes at 37° C. and 5% CO2 in a humidified plastic tray. To test for antagonist activity 5 μL of assay buffer containing forskolin (Sigma F-6886. 4 μM for BLT1) and either LTB4 (Sigma Aldrich L0517; 2 nM BLT1) was added and incubated for 30 minutes at 37° C. and 5% CO2 in a humidified plastic tray.
# The levels of cAMP were detected using the CisBio kit following the manufacturer's instructions: cAMP-d2 vial was reconstituted with distilled water and then diluted accordingly with conjugate & lysis buffer. 5 μL of cAMP-d2 working solution was added to all of the wells of the assay plate. cAMP-Cryptate vial was reconstituted with distilled water and then diluted accordingly with conjugate & lysis buffer. 5 μL of cAMP-Cryptate working solution were added to the assay plate. The assay plate was shaken for 3 minutes and incubated at room temperature for 45 minutes, then read on Perkin Elmer Envision. cAMP standard curve and fit data were plotted using a 4 parameter dose response curve fitting algorithm to fit curve. A 4-parameter curve fit (Max, min, log EC50 and slope) was used to transform fluorescent 665 nm/615 nm ratio signal to cAMP concentration. After normalization to treated and untreated controls, the percent effect of signal at each compound concentration was calculated. The plot of percent effect versus the log of compound concentration was fit with a 4-parameter concentration response equation to calculate EC50 values. Compound concentrations tested were 10 000, 3 333, 1 111, 370.4, 123.4, 41.2, 13.7, 4.6, 1.5 and 0.5 nM with 0.25% residual DMSO.
# Chain of human BLT1 receptor (Q15722 whole entry): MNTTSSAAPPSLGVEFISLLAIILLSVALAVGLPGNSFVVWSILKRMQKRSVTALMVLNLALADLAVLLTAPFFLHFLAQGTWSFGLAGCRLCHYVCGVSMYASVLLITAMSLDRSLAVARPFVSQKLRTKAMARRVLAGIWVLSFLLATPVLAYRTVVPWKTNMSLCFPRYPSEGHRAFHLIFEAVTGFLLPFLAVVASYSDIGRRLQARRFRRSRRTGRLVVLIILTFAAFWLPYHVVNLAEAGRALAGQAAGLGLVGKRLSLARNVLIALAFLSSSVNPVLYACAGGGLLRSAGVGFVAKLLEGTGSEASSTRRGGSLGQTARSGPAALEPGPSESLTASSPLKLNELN
row,SMILES,EC50 [nM]
1,"Cc1ncc(-c2ccc(C[C@@H]3COc4cc(-c5ccccc5C(=O)NS(=O)(=O)C5CC5)ccc4[C@H]3O)nc2)s1 (racemic) [Example 9, N-(Cyclopropylsulfonyl)-2-((rac-trans)-4-hydroxy-3-((5-(2-methylthiazol-5-yl)pyridin-2-yl)methyl)chroman-7-yl)benzamide]",9
2,"CC(C)(C)S(=O)(=O)NC(=O)c1ccccc1-c1ccc2c(c1)OC[C@@H](Cc1ccc(-c3cncs3)cn1)[C@@H]2O (single isomer, unassigned) [Example 6, N-(tert-Butylsulfonyl)-2-((3R, 4S or 3S, 4R)-4-hydroxy-3-((5-(thiazol-5-yl)pyridin-2-yl)methyl)chroman-7-yl)benzamide]",128
3,"CC(C)(C)S(=O)(=O)NC(=O)c1ccccc1-c1ccc2c(c1)OC[C@@H](Cc1ccc(-c3cncs3)cn1)[C@@H]2O (racemic) [Example 4, N-(tert-Butylsulfonyl)-2-((rac-trans)-4-hydroxy-3-((5-(thiazol-5-yl)pyridin-2-yl)methyl)chroman-7-yl)benzamide]",8
4,"Cc1ncc(-c2ccc(C[C@@H]3COc4cc(-c5ccccc5C(=O)NS(=O)(=O)C5CC5)ccc4[C@H]3O)nc2)s1 (single isomer, unassigned) [Example 11, N-(Cyclopropylsulfonyl)-2-((3R,4S or 3S,4R)-4-hydroxy-3-((5-(2-methylthiazol-5-yl)pyridin-2-yl)methyl)chroman-7-yl)benzamide]",391
5,"O=C(NS(=O)(=O)C1CC1)c1ccccc1-c1ccc2c(c1)OC[C@@H](Cc1ccc(-c3cncs3)cn1)[C@@H]2O (racemic) [Example 8, N-(Cyclopropylsulfonyl)-2-((rac-trans)-4-hydroxy-3-((5-(thiazol-5-yl)pyridin-2-yl)methyl)chroman-7-yl)benzamide]",12
6,"CC1(S(=O)(=O)NC(=O)c2ccccc2-c2ccc3c(c2)OC[C@H](Cc2ccc(-c4cncs4)cn2)[C@H]3O)CC1 (single isomer, unassigned) [Example 2, 2-((3S, 4R or 3R, 4S)-4-Hydroxy-3-((5-(thiazol-5-yl)pyridin-2-yl)methyl)chroman-7-yl)-N-((1-methylcyclopropyl)sulfonyl)benzamide]",6
7,"CC(C)(C)S(=O)(=O)NC(=O)c1ccccc1-c1ccc2c(c1)OC[C@H](Cc1ccc(-c3cncs3)cn1)[C@H]2O (single isomer, unassigned) [Example 5, N-(tert-Butylsulfonyl)-2-((3S, 4R or 3R, 4S)-4-hydroxy-3-((5-(thiazol-5-yl)pyridin-2-yl)methyl)chroman-7-yl)benzamide]",5
8,"CC1(S(=O)(=O)NC(=O)c2ccccc2-c2ccc3c(c2)OC[C@@H](Cc2ccc(-c4cncs4)cn2)[C@@H]3O)CC1 (single isomer, unassigned) [Example 3, 2-((3R, 4S or 3S, 4R)-4-Hydroxy-3-((5-(thiazol-5-yl)pyridin-2-yl)methyl)chroman-7-yl)-N-((1-methylcyclopropyl)sulfonyl)benzamide]",78

# Second part, the compound after the results:
row,EC50 [nM],SMILES
1,6,"Cc1ncc(-c2ccc(C[C@H]3COc4cc(-c5ccccc5C(=O)NS(=O)(=O)C5CC5)ccc4[C@@H]3O)nc2)s1 (single isomer, unassigned) [Example 10, N-(Cyclopropylsulfonyl)-2-((3S,4R or 3R,4S)-4-hydroxy-3-((5-(2-methylthiazol-5-yl)pyridin-2-yl)methyl)chroman-7-yl)benzamide]"
2,6,"CC1(S(=O)(=O)NC(=O)c2ccccc2-c2ccc3c(c2)OC[C@@H](Cc2ccc(-c4cncs4)cn2)[C@@H]3O)CC1 [Example 1, 2-((Rac-trans)-4-Hydroxy-3-((5-(thiazol-5-yl)pyridin-2-yl)methyl)chroman-7-yl)-N-((1-methylcyclopropyl)sulfonyl)benzamide]"
3,5,"Cc1ncc(-c2ccc(C[C@@H]3COc4cc(-c5ccccc5C(=O)NS(=O)(=O)C(C)(C)C)ccc4[C@H]3O)nc2)s1 (racemic) [Example 7, N-(tert-Butylsulfonyl)-2-((rac-trans)-4-hydroxy-3-((5-(2-methylthiazol-5-yl)pyridin-2-yl)methyl)chroman-7-yl)benzamide]"
